In patent publication US8058256B2, “Polymeric carrier for delivery of small interfering RNA” (University of Utah Research Foundation, priority 2006, dated 2011):

Test system: VEGF expression in CT-26 colon adenocarcinoma cells
Experiment: VEGF silencing in vitro, mouse VEGF ELISA of cell supernatants
Type: cell-based
Details: bPEI carrier; N/P ratio of 10; CT-26 cells; 0.7 μg siRNA/well
Protocol: To evaluate the biological significance of these systems, the inhibitory activity of siRNA against the expression of VEGF in CT-26 colon adenocarcinoma cells was investigated.
CT-26 cells were seeded in 24-well tissue culture plates at 8×10^4 cells per well in 10% FBS containing RPMI 1640 medium. Cells achieved 80% confluency within 24 h, after which they were transfected with cationic substance/siRNA complexes prepared at N/P ratios ranging from 5 to 40. The total amount of siRNA loaded was maintained constant at 0.7 μg/well. The transfection was carried out in the absence of serum. The cells were allowed to incubate at 37° C. in the presence of complexes for 4 h in a CO2 incubator, followed by replacement of 1 ml of RPMI 1640 containing 10% FBS. Thereafter, the cells were incubated at 37° C. for an additional 24 h. […]
The amount of mouse VEGF produced in medium was determined using a mouse VEGF ELISA kit (R&D Systems Inc., Minneapolis, Minn.) according to the recommendation of the manufacturer. […] The enzymatic reaction was stopped by adding 100 μl of stop solution to the wells, and absorbance was determined by spectrophotometry at 450 nm. The VEGF concentration in the cell supernatant samples was calculated based on the standard curve.
The inhibitory effect was evaluated from the relative silencing of the VEGF assayed by ELISA.

scVEGF: scrambled VEGF siRNA, SEQ ID NO:3 and SEQ ID NO:4; in b74 tested as complex with bPEI (chain 1 GAUAGCAAUGACGAAUGCGUATT; chain 2 UACGCAUUCGUCAUUGCUAUCTT; chemistry not given here)
silencing of VEGF expression (ELISA): no effect
